Source: patent publication US10766888B1, “HMOX1 inducers” (Mitobridge Inc., priority 2019, dated 2020)
Converted amounts (≈) assume the structure as drawn.

Columns and labels:
[1] = tested on: Human Heme Oxygenase-1 (HMOX-1); test: ELISA assay to measure human heme oxygenase-1 (HMOX-1) in HepG2 lysate; assay type: cell-based; conditions: human HMOX1 protein level in HepG2 lysate; * = average of 2 or more EC50 determinations; NA = Not Active; read-out: EC50
Summary of the method: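 Treated HepG2 cells were lysed in PBS with 0.5% Triton X100, 1 mM EDTA and protease inhibitors, and lysates were diluted 1:20. HO-1 was measured by sandwich ELISA (biotinylated detection antibody, streptavidin-HRP, chemiluminescence) at room temperature against a standard curve from 20 ng/ml. EC50 and fold change were expressed relative to DMSO control.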

Kinetic solubility = assay type: physicochemical; conditions: Dulbecco's phosphate buffer saline (DPBS), aqueous buffer, kinetic from dmso stock, DPBS pH 7.4, 25° C., 200 μM test compound
Protocol: Example 144. Kinetic Solubility
10 μL of 10 mM DMSO stock solution were aliquotted to 490 μL of DMSO solution and separately 490 μL of Dulbecco's phosphate buffer saline, DPBS, pH 7.4 solution in 1.2 mL 96-well plates in duplicate. Final concentration was 200 μM of the test compound. Samples were incubated at 25° C. with shaking at 200 rpm for 16 h. Samples were centrifuged at 3500 rpm for 20 min at 25° C., and supernatant was submitted for HPLC analysis.
Kinetic solubility was measured using the following equation: […]

Compound	EC50 [1] [nM]	solubility at 16 h (Kinetic solubility) [µM]
O=C(O)c1ccc2c(c1)nc(Nc1nc3ccc(OC(F)(F)F)cc3o1)n2C1CCOCC1 [Example 79, 1-(tetrahydro-2H-pyran-4-yl)-2-((6-(trifluoromethoxy)benzo[d]oxazol-2-yl)amino)-1H-benzo[d]imidazole-5-carboxylic acid]	4000	12.4 (≈ 5.73 µg/mL)
Cn1c(Nc2nc3ccc(Br)cc3o2)nc2cc(C(=O)O)ccc21 [Example 91, 2-((6-bromobenzo[d]oxazol-2-yl)amino)-1-methyl-1H-benzo[d]imidazole-5-carboxylic acid]	2500	2.6 (≈ 1.01 µg/mL)
COc1ccc2nc(Nc3nc4cc(C(=O)NCCO)ccc4n3C)oc2c1 [Example 92, N-(2-hydroxyethyl)-2-((6-methoxybenzo[d]oxazol-2-yl)amino)-1-methyl-1H-benzo[d]imidazole-5-carboxamide]	1400	3.5 (≈ 1.33 µg/mL)
COCCNC(=O)c1ccc2c(c1)nc(Nc1nc3ccc(OC(F)(F)F)cc3o1)n2CC1(O)COC1 [Example 94, 1-((3-hydroxyoxetan-3-yl)methyl)-N-(2-methoxyethyl)-2-((6-(trifluoromethoxy)benzo[d]oxazol-2-yl)amino)-1H-benzo[d]imidazole-5-carboxamide]	1300	0.3 (≈ 0.156 µg/mL)
Cn1c(Nc2nc3ccc(Cl)cc3o2)nc2cc(C(=O)NCCO)ccc21 [Example 97, 2-((6-chlorobenzo[d]oxazol-2-yl)amino)-N-(2-hydroxyethyl)-1-methyl-1H-benzo[d]imidazole-5-carboxamide]	1400	< 5
COCCNC(=O)c1ccc2c(c1)nc(Nc1nc3ccc(OCC(F)(F)F)cc3o1)n2C [Example 99, N-(2-methoxyethyl)-1-methyl-2-((6-(2,2,2-trifluoroethoxy)benzo[d]oxazol-2-yl)amino)-1H-benzo[d]imidazole-5-carboxamide]	920	0.4 (≈ 0.185 µg/mL)
Cn1c(Nc2nc3ccc(OCC(F)(F)F)cc3o2)nc2cc(C(=O)NCCO)ccc21 [Example 100, N-(2-hydroxyethyl)-1-methyl-2-((6-(2,2,2-trifluoroethoxy)benzo[d]oxazol-2-yl)amino)-1H-benzo[d]imidazole-5-carboxamide]	1200	5.3 (≈ 2.38 µg/mL)
COCCNC(=O)c1ccc2c(c1)nc(Nc1nc3ccc(OCCO)cc3o1)n2C [Example 102, 2-((6-(2-hydroxyethoxy)benzo[d]oxazol-2-yl)amino)-N-(2-methoxyethyl)-1-methyl-1H-benzo[d]imidazole-5-carboxamide]	1300	5.3 (≈ 2.25 µg/mL)
Cn1c(Nc2nc3ccc(OCCO)cc3o2)nc2cc(C(=O)NCCO)ccc21 [Example 103, 2-((6-(2-hydroxyethoxy)benzo[d]oxazol-2-yl)amino)-N-(2-hydroxyethyl)-1-methyl-1H-benzo[d]imidazole-5-carboxamide]	3100	> 20
Cn1c(Nc2nc3ccc(OCCO)cc3o2)nc2cc(C(=O)NCCOCCO)ccc21 [Example 104, 2-((6-(2-hydroxyethoxy)benzo[d]oxazol-2-yl)amino)-N-(2-(2-hydroxyethoxy)ethyl)-1-methyl-1H-benzo[d]imidazole-5-carboxamide]	3700	6.6 (≈ 3.01 µg/mL)
Cn1c(Nc2nc3cc(F)c(C(F)(F)F)cc3o2)nc2cc(C(=O)NCCO)ccc21 [Example 108, 2-((5-fluoro-6-(trifluoromethyl)benzo[d]oxazol-2-yl)amino)-N-(2-hydroxyethyl)-1-methyl-1H-benzo[d]imidazole-5-carboxamide]	1500	0.3 (≈ 0.131 µg/mL)
COCCNC(=O)c1ccc2c(c1)nc(Nc1nc3cccnc3o1)n2C [Example 109, N-(2-methoxyethyl)-1-methyl-2-(oxazolo[5,4-b]pyridin-2-ylamino)-1H-benzo[d]imidazole-5-carboxamide]	6100	7.4 (≈ 2.71 µg/mL)
Cn1c(Nc2nc3cccnc3o2)nc2cc(C(=O)NCCO)ccc21 [Example 110, N-(2-hydroxyethyl)-1-methyl-2-(oxazolo[5,4-b]pyridin-2-ylamino)-1H-benzo[d]imidazole-5-carboxamide]	7600	18.9 (≈ 6.66 µg/mL)
Cn1c(Nc2nc3cccc(C(F)(F)F)c3o2)nc2cc(C(=O)NCCOCCO)ccc21 [Example 117, N-(2-(2-hydroxyethoxy)ethyl)-1-methyl-2-((7-(trifluoromethyl)benzo[d]oxazol-2-yl)amino)-1H-benzo[d]imidazole-5-carboxamide]	1800	1.2 (≈ 0.556 µg/mL)
COCCONC(=O)c1ccc2c(c1)nc(Nc1nc3ccccc3o1)n2C [Example 119, 2-(benzo[d]oxazol-2-ylamino)-N-(2-methoxyethoxy)-1-methyl-1H-benzo[d]imidazole-5-carboxamide]	600	0.5 (≈ 0.191 µg/mL)
CC(O)CONC(=O)c1ccc2c(c1)nc(Nc1nc3ccccc3o1)n2C (centres unmarked) [Example 120, 2-(benzo[d]oxazol-2-ylamino)-N-(2-hydroxypropoxy)-1-methyl-1H-benzo[d]imidazole-5-carboxamide]	2000	6.5 (≈ 2.48 µg/mL)
Cn1c(Nc2nc3ccc(C(F)(F)F)cc3o2)nc2cc(C(=O)NOCCO)ccc21 [Example 125, N-(2-hydroxyethoxy)-1-methyl-2-((6-(trifluoromethyl)benzo[d]oxazol-2-yl)amino)-1H-benzo[d]imidazole-5-carboxamide]	300	3.5 (≈ 1.52 µg/mL)

The remaining lines, values ahead:

EC50 [1] [nM]	solubility at 16 h (Kinetic solubility) [µM]	Compound
500	2.1 (≈ 0.948 µg/mL)	Cn1c(Nc2nc3ccc(OC(F)(F)F)cc3o2)nc2cc(C(=O)NOCCO)ccc21 [Example 126, N-(2-hydroxyethoxy)-1-methyl-2-((6-(trifluoromethoxy)benzo[d]oxazol-2-yl)amino)-1H-benzo[d]imidazole-5-carboxamide]
500	< 2	COCCONC(=O)c1ccc2c(c1)nc(Nc1nc3ccc(OC(F)(F)F)cc3o1)n2C [Example 127, N-(2-methoxyethoxy)-1-methyl-2-((6-(trifluoromethoxy)benzo[d]oxazol-2-yl)amino)-1H-benzo[d]imidazole-5-carboxamide]
3400	14.1 (≈ 6.03 µg/mL)	Cn1c(Nc2nc3ccc(OCCO)cc3o2)nc2cc(C(=O)NOCCO)ccc21 [Example 129, N-(2-hydroxyethoxy)-2-((6-(2-hydroxyethoxy)benzo[d]oxazol-2-yl)amino)-1-methyl-1H-benzo[d]imidazole-5-carboxamide]
740	< 2	Cn1c(Nc2nc3cc(F)c(C(F)(F)F)cc3o2)nc2cc(C(=O)NOCCO)ccc21 [Example 130, 2-((5-fluoro-6-(trifluoromethyl)benzo[d]oxazol-2-yl)amino)-N-(2-hydroxyethoxy)-1-methyl-1H-benzo[d]imidazole-5-carboxamide]
1400	6.7 (≈ 2.69 µg/mL)	CC1CCc2nc(Nc3nc4cc(C(=O)NOCCO)ccc4n3C)sc2C1 (centres unmarked) [Example 131, N-(2-hydroxyethoxy)-1-methyl-2-((6-methyl-4,5,6,7-tetrahydrobenzo[d]thiazol-2-yl)amino)-1H-benzo[d]imidazole-5-carboxamide]
1500	3.1 (≈ 1.31 µg/mL)	COCCONC(=O)c1ccc2c(c1)nc(Nc1nc3ccc(C(C)=O)cc3o1)n2C [Example 132, 2-((6-acetylbenzo[d]oxazol-2-yl)amino)-N-(2-methoxyethoxy)-1-methyl-1H-benzo[d]imidazole-5-carboxamide]
5300	9.2 (≈ 3.77 µg/mL)	Cn1c(Nc2nc3ccc(C(C)(C)O)cc3o2)nc2cc(C(=O)NCCO)ccc21 [Example 133, N-(2-hydroxyethyl)-2-((6-(2-hydroxypropan-2-yl)benzo[d]oxazol-2-yl)amino)-1-methyl-1H-benzo[d]imidazole-5-carboxamide]
1400	< 2	Cn1c(Nc2nc3ccc(-c4cscn4)cc3o2)nc2cc(C(=O)NCCOCCO)ccc21 [Example 134, N-(2-(2-hydroxyethoxy)ethyl)-1-methyl-2-((6-(thiazol-4-yl)benzo[d]oxazol-2-yl)amino)-1H-benzo[d]imidazole-5-carboxamide]
2900	10.6 (≈ 5.09 µg/mL)	Cn1c(Nc2nc3ccc(N4CCOCC4)cc3o2)nc2cc(C(=O)NCCOCCO)ccc21 [Example 136, N-(2-(2-hydroxyethoxy)ethyl)-1-methyl-2-((6-morpholinobenzo[d]oxazol-2-yl)amino)-1H-benzo[d]imidazole-5-carboxamide]
2600	< 2	Cn1c(Nc2nc3ccccc3o2)nc2cc(C(=O)C(F)(F)F)ccc21 [Example 139, 1-(2-(benzo[d]oxazol-2-ylamino)-1-methyl-1H-benzo[d]imidazol-5-yl)-2,2,2-trifluoroethan-1-one]
3600	9 (≈ 3.25 µg/mL)	Cn1c(Nc2nc3ccccc3o2)nc2cc(C(N)C(F)(F)F)ccc21 (centres unmarked) [Example 141, N-(5-(1-amino-2,2,2-trifluoroethyl)-1-methyl-1H-benzo[d]imidazol-2-yl)benzo[d]oxazol-2-amine]
